Patent EP1306084A1, “Compositions for the control of parasitic infestations in fish” (Alpharma AS, priority 1998, dated 1999)

Columns and labels:
[1] = tested on: sea lice; test: Oral treatment in freshwater before sea transfer, sea lice counts after natural infection (Example 4); format: in vivo, salmon (Salmo salar)
Method: The treatment dosage was 9 mg hexaflumuron per kg fish per day for 10 days. This is indicated by "Groups/Timepoints" in the figure; • Figure 2 relates to the trial in Example 2 that was carried out on Atlantic salmon (Salmo salar). […] The treatment dosage varied between 3 - 9 mg hexaflumuron and 9- 12 mg fluazuron per kg fish per day for 7 days. This is indicated by "Groups/Timepoints" in the diagram. […] The treated groups are compared to an untreated control group. The treatment dosage was 4 mg hexaflumuron per kg fish per day for 5 days. This is indicated by "Groups/Timepoints" in the figure. Cage 2 = controls, Cage 4-6 = treated groups, 16.6.97 = time point for sea transfer and 5.8.97= controls treated by bathing with deltamethrin; • Figure 4 relates to the trial described in Example 5, which was carried out on sea trout (Salmo trutta). […] The treated groups are compared with an untreated control group. The dosage for oral treatment was 4 mg hexaflumuron per kilo fish per day for 5 days, and 5 ppm hexaflumuron as a 30 minute bath treatment. This is indicated by "Groups/Timepoints" in the figure. Cage 1.4 = Controls, cage 1.3 = Oral treatment, cage 1.2 = Bath treatment. […] The treated groups are compared with an untreated control group, and one group that has been treated orally with teflubenzuron (10 mg/kg of teflubenzuron per kg fish per day for 7 days). The dosage for oral treatment was 5.6 mg hexaflumuron per kg fish per day for 7 days, and 5 ppm hexaflumuron as a 30 minute bath treatment. […] End of treatment: 22.10.97, Sea transfer: 23.10.97. […]
About 2,500 salmon (Salmo salar) of average weight 42 grams were treated orally with a daily dosage of 4 mg hexaflumuron per kilo fish for 5 days. […] The number of lice on 10 fish from each cage were counted every third week to check if there was any difference in the number of lice in the cages. […]

[2] = tested on: sea lice; test: Oral treatment (coated feed / Akvaletter) of naturally sea lice infected salmon in minicages (Example 2); format: in vivo, Atlantic salmon (Salmo salar)
Method: The treatment dosage was 9 mg hexaflumuron per kg fish per day for 10 days. This is indicated by "Groups/Timepoints" in the figure; • Figure 2 relates to the trial in Example 2 that was carried out on Atlantic salmon (Salmo salar). […] The treatment dosage varied between 3 - 9 mg hexaflumuron and 9- 12 mg fluazuron per kg fish per day for 7 days. This is indicated by "Groups/Timepoints" in the diagram. […] The treated groups are compared to an untreated control group. The treatment dosage was 4 mg hexaflumuron per kg fish per day for 5 days. This is indicated by "Groups/Timepoints" in the figure. Cage 2 = controls, Cage 4-6 = treated groups, 16.6.97 = time point for sea transfer and 5.8.97= controls treated by bathing with deltamethrin; • Figure 4 relates to the trial described in Example 5, which was carried out on sea trout (Salmo trutta). […] The treated groups are compared with an untreated control group. The dosage for oral treatment was 4 mg hexaflumuron per kilo fish per day for 5 days, and 5 ppm hexaflumuron as a 30 minute bath treatment. This is indicated by "Groups/Timepoints" in the figure. Cage 1.4 = Controls, cage 1.3 = Oral treatment, cage 1.2 = Bath treatment. […] The treated groups are compared with an untreated control group, and one group that has been treated orally with teflubenzuron (10 mg/kg of teflubenzuron per kg fish per day for 7 days). The dosage for oral treatment was 5.6 mg hexaflumuron per kg fish per day for 7 days, and 5 ppm hexaflumuron as a 30 minute bath treatment. […] End of treatment: 22.10.97, Sea transfer: 23.10.97. T1 = 3 weeks post end of treatment, T2 = 5 weeks post end of treatment, T3 = 9 weeks post end of treatment, T4 = 12 weeks post end of treatment; • Figure 6 relates to the trial in Example 6 at time points 4-6, with the same trial parameters as for Figure 5. T5 = 15 weeks post end of treatment, T6 = 17 weeks post end of treatment. Cage 3 and 4 were treated by bath with deltamethrin after sea lice counting at T4 (12.01.98); • Figure 7 relates to the trial described in Example 7 where salmon were injected on 17.12.97 with two formulations (groups L and R, respectively) of hexaflumuron and a vaccine formulation without hexaflumuron (control). […] The vaccinated fish was transferred to sea water on 09.01.98; • Figure 8 summarises the trial of Example 8 where salmon smolts were injected with 9 different active substances on 08.07.98. Only results for Moxidectin (Mox.), Lufenuron (Luf.) and hexaflumuron in Apoject 1-Fural (Hex.Apo) and in animal oil (Hex.oil) are shown, and • Figure 9 summarises the trial described in Example 10 where salmon were injected on 03.12.97 with 3 different formulations of hexaflumuron (Hexa 1, Hexa 2 and Hexa 3). The fish were transferred to sea water at T0. […]

[3] = tested on: sea lice; test: Oral hexaflumuron treatment of naturally sea lice infected salmon in sea cages (Example 1); format: in vivo, Atlantic salmon (Salmo salar); settings: 9 mg per kg each day for 10 days
Method: The treatment dosage was 9 mg hexaflumuron per kg fish per day for 10 days. This is indicated by "Groups/Timepoints" in the figure; • Figure 2 relates to the trial in Example 2 that was carried out on Atlantic salmon (Salmo salar). […] The treatment dosage varied between 3 - 9 mg hexaflumuron and 9- 12 mg fluazuron per kg fish per day for 7 days. This is indicated by "Groups/Timepoints" in the diagram. […] The treated groups are compared to an untreated control group. The treatment dosage was 4 mg hexaflumuron per kg fish per day for 5 days. This is indicated by "Groups/Timepoints" in the figure. Cage 2 = controls, Cage 4-6 = treated groups, 16.6.97 = time point for sea transfer and 5.8.97= controls treated by bathing with deltamethrin; • Figure 4 relates to the trial described in Example 5, which was carried out on sea trout (Salmo trutta). […] The treated groups are compared with an untreated control group. The dosage for oral treatment was 4 mg hexaflumuron per kilo fish per day for 5 days, and 5 ppm hexaflumuron as a 30 minute bath treatment. This is indicated by "Groups/Timepoints" in the figure. Cage 1.4 = Controls, cage 1.3 = Oral treatment, cage 1.2 = Bath treatment. […] The treated groups are compared with an untreated control group, and one group that has been treated orally with teflubenzuron (10 mg/kg of teflubenzuron per kg fish per day for 7 days). […]

## O=C(NC(=O)c1c(F)cccc1F)Nc1cc(Cl)c(OC(F)(F)C(F)F)c(Cl)c1 [hexaflumuron]
[1]; oral 4 mg per kilo fish daily for 5 days in freshwater
  protection from sea lice infestation after transfer to sea: 6-9 weeks
[1]; oral 4 mg per kilo fish daily for 5 days, 3 and 6 weeks after sea transfer
  number of lice larger than Chalimus II versus control: significantly lower
[2]; all groups treated with hexaflumuron, 3.0-9.0 mg per day, 7 days, 8.0 - 9.8°C
  reduced the number of lice as compared to the control treatment: more than 70%
[2]; groups given the highest dosage (9.0 mg per day, 7 days)
  reduction of sensitive chalimus and pre-adult stages: > 99%
[2]; hexaflumuron groups, 3.0-9.0 mg per day, 7 days
  reduction of sensitive chalimus and pre-adult stages: > 90%
[3]
  reduction of sensitive chalimus and pre-adult stages: about 95%
[3]; medicated pellets, 7.6 - 9.4°C
  reduced the number of lice as compared to the control group: more than 90%
